Experimental data reported in PubChem BioAssay AID328 (DTP/NCI, 2004).
Several values for one entry are separate records, joined by “and”; a condition that tells them apart may be missing. Equal entries are not always repeated. Inconclusive results and toxic doses are left out.

System: BDF1 mice, P388 leukemia ip, median survival T/C
Experiment: NCI In Vivo Anticancer Drug Screen. Data for tumor model P388 Leukemia (intraperitoneal) in B6D2F1 (BDF1) mice
Details: endpoint: median survival time, higher = longer survival
How it was run: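 Reported as T/C, where T is the survival measurement in dosed animals and C the same measurement in vehicle controls.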

[1] = dose: 50.0 mg/kg/injection, schedule: Q01DX009 (ip), vehicle: saline with Tween-80
[2] = dose: 100.0 mg/kg/injection, schedule: Q01DX009 (ip), vehicle: saline with Tween-80
[3] = dose: 200.0 mg/kg/injection, schedule: Q01DX009 (ip), vehicle: saline with Tween-80

In the case of `Cc1nc(OCc2ccccc2)c(C(=O)OCc2ccccc2)nc1C`, the T/C (dose: 25.0 mg/kg/injection, schedule: Q01DX009 (ip), vehicle: saline with Tween-80) is reported as 100 % of control, the T/C [1] is reported as 106 % of control and 121 % of control and the T/C [2] is reported as 106 % of control and 108 % of control. The T/C (dose: 100.0 mg/kg/injection, schedule: Q04DX003 (ip), vehicle: saline with Tween-80) was 94 % of control, the T/C [3] was 100 % of control and 101 % of control and the T/C (dose: 200.0 mg/kg/injection, schedule: Q04DX003 (ip), vehicle: saline with Tween-80) was 91 % of control. For the same compound, the T/C (dose: 400.0 mg/kg/injection, schedule: Q01DX009 (ip), vehicle: saline with Tween-80) was 97 % of control and 124 % of control, the T/C (dose: 400.0 mg/kg/injection, schedule: Q04DX003 (ip), vehicle: saline with Tween-80) was 100 % of control and the T/C (dose: 500.0 mg/kg/injection, schedule: Q01DX009 (ip), vehicle: saline with Tween-80) was 106 % of control.

For `COc1cc2c(cc1Oc1c(Oc3c(O)c(OC)cc4c3C(CC(C)C)N(C)CC4)c(OC)cc3c1C(CC(C)C)N(C)CC3)C(CC(C)C)N(C)CC2` (stereo not given), the T/C (dose: 12.5 mg/kg/injection, schedule: Q01DX010 (ip), vehicle: saline) was 95 % of control, the T/C (dose: 25.0 mg/kg/injection, schedule: Q01DX010 (ip), vehicle: saline) was 90 % of control and the T/C (dose: 50.0 mg/kg/injection, schedule: Q01DX010 (ip), vehicle: saline) was 95 % of control.

With `O=C1OC2C(I)C3CCC2C1C3` (stereo not given) the T/C (dose: 100.0 mg/kg/injection, schedule: Q01DX009 (ip), vehicle: saline) was 105 % of control, the T/C (dose: 100.0 mg/kg/injection, schedule: Q04DX003 (ip), vehicle: saline) was 121 % of control and the T/C (dose: 200.0 mg/kg/injection, schedule: Q01DX009 (ip), vehicle: saline) was 115 % of control. The T/C (dose: 200.0 mg/kg/injection, schedule: Q04DX003 (ip), vehicle: saline) was 95 % of control and the T/C (dose: 400.0 mg/kg/injection, schedule: Q04DX003 (ip), vehicle: saline) was 95 % of control.

For `CN(C)CC/C=C1\c2ccccc2C(C)(C)c2ccc(Cl)cc21`, the T/C (dose: 6.0 mg/kg/injection, schedule: Q04DX003 (ip), vehicle: saline with Tween-80) was 95 % of control, the T/C (dose: 6.25 mg/kg/injection, schedule: Q01DX009 (ip), vehicle: Klucel (hydroxypropylcellulose) (HPC)) was 100 % of control and the T/C (dose: 11.0 mg/kg/injection, schedule: Q04DX003 (ip), vehicle: saline with Tween-80) was 104 % of control. The T/C (dose: 12.5 mg/kg/injection, schedule: Q01DX009 (ip), vehicle: Klucel (hydroxypropylcellulose) (HPC)) was 111 % of control, the T/C (dose: 16.5 mg/kg/injection, schedule: Q01DX009 (ip), vehicle: Klucel (hydroxypropylcellulose) (HPC)) was 90 % of control and 100 % of control and the T/C (dose: 22.0 mg/kg/injection, schedule: Q04DX003 (ip), vehicle: saline with Tween-80) was 104 % of control. For the same compound, the T/C (dose: 25.0 mg/kg/injection, schedule: Q01DX009 (ip), vehicle: Klucel (hydroxypropylcellulose) (HPC)) was 88 % of control and 100 % of control, the T/C (dose: 33.0 mg/kg/injection, schedule: Q04DX003 (ip), vehicle: saline with Tween-80) was 100 % of control and 104 % of control and the T/C (dose: 37.5 mg/kg/injection, schedule: Q01DX009 (ip), vehicle: Klucel (hydroxypropylcellulose) (HPC)) was 90 % of control and 92 % of control. For the same compound, the T/C (dose: 50.0 mg/kg/injection, schedule: Q04DX003 (ip), vehicle: saline with Tween-80) was 110 % of control and 112 % of control, the T/C (dose: 55.0 mg/kg/injection, schedule: Q01DX009 (ip), vehicle: Klucel (hydroxypropylcellulose) (HPC)) was 95 % of control and the T/C (dose: 75.0 mg/kg/injection, schedule: Q04DX003 (ip), vehicle: saline with Tween-80) was 115 % of control and 120 % of control. The T/C (dose: 85.0 mg/kg/injection, schedule: Q01DX009 (ip), vehicle: Klucel (hydroxypropylcellulose) (HPC)) was 87 % of control and the T/C (dose: 125.0 mg/kg/injection, schedule: Q01DX009 (ip), vehicle: Klucel (hydroxypropylcellulose) (HPC)) was 95 % of control.

`O=C(O)CCCCOc1ccc(N(CCCl)CCCl)cc1` was tested, and the T/C (dose: 50.0 mg/kg/injection, schedule: Q01DX001 (ip), vehicle: Klucel (hydroxypropylcellulose) (HPC)) was 174 % of control, the T/C (dose: 100.0 mg/kg/injection, schedule: Q01DX001 (ip), vehicle: Klucel (hydroxypropylcellulose) (HPC)) was 177 % of control and the T/C (dose: 200.0 mg/kg/injection, schedule: Q01DX001 (ip), vehicle: Klucel (hydroxypropylcellulose) (HPC)) was 155 % of control.

`CCCCCCCCCCCCN=Cc1cc(Cc2ccc(O)c(C=NCCCCCCCCCCCC)c2)ccc1O` was tested, and the T/C [1] was 106 % of control, the T/C [2] was 106 % of control and the T/C [3] was 123 % of control.

With `O=c1c2ccccc2[nH]c2cc3c(=O)c4ccccc4[nH]c3cc12` the T/C [1] was 99 % of control, the T/C [2] was 95 % of control and the T/C [3] was 93 % of control.
